Data as given in patent US20240245675A1, “PROTEIN SECRETION INHIBITORS” (Gate Bioscience, Inc., priority 2021, published 2024).

Biological target: PDCD1 Construct (signal peptide + 10 amino acids of Programmed Cell Death Receptor 1 fused to HaloTag-HiBit) (Homo sapiens, UniProt P61619)
Experiment: HiBit assay, secretion of SP-HaloTag-HiBit fusion protein, PDCD1 construct
Assay type: cell-based
Details: T-REx-293 cells, doxycycline-induced, Nano-Glo HiBiT Extracellular Detection

Chain of PDCD1 Construct (signal peptide + 10 amino acids of Programmed Cell Death Receptor 1 fused to HaloTag-HiBit) (P61619 whole entry, the tested form may be a part): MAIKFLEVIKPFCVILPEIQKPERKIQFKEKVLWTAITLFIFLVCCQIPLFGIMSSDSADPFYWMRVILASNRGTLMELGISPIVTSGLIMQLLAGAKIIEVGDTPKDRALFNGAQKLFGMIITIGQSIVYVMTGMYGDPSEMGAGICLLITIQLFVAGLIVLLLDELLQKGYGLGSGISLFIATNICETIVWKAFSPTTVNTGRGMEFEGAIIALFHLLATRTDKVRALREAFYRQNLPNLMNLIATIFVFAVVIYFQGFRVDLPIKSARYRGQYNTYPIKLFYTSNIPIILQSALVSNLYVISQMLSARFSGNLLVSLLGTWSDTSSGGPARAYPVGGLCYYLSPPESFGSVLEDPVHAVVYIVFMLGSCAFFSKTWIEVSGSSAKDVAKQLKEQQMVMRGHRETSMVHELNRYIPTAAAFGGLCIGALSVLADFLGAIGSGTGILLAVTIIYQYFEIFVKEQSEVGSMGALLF

Row | Compound | IC50
1 | CC(C)OC(C)(C)c1csc(NC(=O)c2nccn2CCc2ccncc2)n1 [Compound 44] | > 30 µM
2 | O=C(Nc1nc(-c2ccccc2)ns1)c1cccn1Cc1ccncc1 [Compound 37] | < 5 µM
3 | O=C(Nc1nc(/C=C/c2ccccc2)ns1)c1cc(F)cn1Cc1ccncc1 [Compound 49, (E)-4-fluoro-1-(pyridin-4-ylmethyl)-N-(3-styryl-1,2,4-thiadiazol-5-yl)-1H-pyrrole-2-carboxamide] | < 5 µM
4 | c1ccc(N2CCC[C@@H]2c2csc(Nc3ncccc3OCc3ccncc3)n2)cc1 [Compound 8, (R)-4-(1-phenylpyrrolidin-2-yl)-N-(3-(pyridin-4-ylmethoxy)pyridin-2-yl)thiazol-2-amine] | 5 to 10 µM
5 | CN1CCN(c2nsc(NC(=O)c3cc(F)cn3Cc3ccncc3)n2)CC1 [Compound 48, 4-fluoro-N-(3-(4-methylpiperazin-1-yl)-1,2,4-thiadiazol-5-yl)-1-(pyridin-4-ylmethyl)-1H-pyrrole-2-carboxamide] | > 30 µM
6 | CC(C)(C)C1CNC(NC(=O)c2cccn2Cc2ccncc2)=N1 (centres unmarked) [Compound 43] | < 5 µM
7 | CC(C)(C)c1nsc(NC(=O)c2cccn2Cc2ccncc2)n1 [Compound 50] | < 5 µM
8 | Cc1cccc(Nc2nc(-c3ccc(-c4cccnc4)cc3)cs2)n1 [Compound 38] | > 30 µM
9 | CC(C)OC(C)(C)c1csc(NC(=O)c2ccnn2CCc2ccncc2)n1 [Compound 24, N-(4-(2-isopropoxypropan-2-yl)thiazol-2-yl)-1-(2-(pyridin-4-yl)ethyl)-1H-pyrazole-5-carboxamide] | > 30 µM
10 | CC(C)OC(C)(C)c1csc(Nc2nccc3ccn(Cc4ccncc4)c23)n1 [Compound 25, 4-(2-isopropoxypropan-2-yl)-N-(1-(pyridin-4-ylmethyl)-1H-pyrrolo[2,3-c]pyridin-7-yl)thiazol-2-amine] | 5 to 10 µM

Biological target: PRP Construct (signal peptide + 10 amino acids of Prion protein fused to HaloTag-HiBit) (Homo sapiens, UniProt P61619)
Sequence (P61619 whole entry, looked up, the tested form may be a part): as the sequence (P61619 whole entry, the tested form may be a part) above
Experiment: cell-based
Details: not given

Row | Compound | IC50
11 | O=C(NCc1ccncc1)Nc1nc([C@H]2CCCN2c2ccccc2)cs1 [Compound 11, (R)-1-(4-(1-phenylpyrrolidin-2-yl)thiazol-2-yl)-3-(pyridin-4-ylmethyl)urea] | > 30 µM
12 | CC(C)OC(C)(C)c1csc(NC(=O)N(C)CCc2ccncc2)n1 [Compound 20, 3-(4-(2-isopropoxypropan-2-yl)thiazol-2-yl)-1-methyl-1-(2-(pyridin-4-yl)ethyl)urea] | > 30 µM
13 | CN(CCc1ccncc1)C(=O)Nc1nc([C@H]2CCCN2c2ccccc2)cs1 [Compound 6, (R)-1-methyl-3-(4-(1-phenylpyrrolidin-2-yl)thiazol-2-yl)-1-(2-(pyridin-4-yl)ethyl)urea] | > 30 µM
14 | CC(CNc1ccncc1)C(=O)Nc1nc([C@H]2CCCN2c2ccccc2)cs1 (stereo partly drawn) [Compound 7, 2-methyl-N-(4-((R)-1-phenylpyrrolidin-2-yl)thiazol-2-yl)-3-(pyridin-4-ylamino)propanamide] | 10 to 30 µM
15 | CC(C)OC(C)(C)c1csc(NC(=O)[C@H](C)OCc2ccncc2)n1 [Compound 15, (S)—N-(4-(2-isopropoxypropan-2-yl)thiazol-2-yl)-2-(pyridin-4-ylmethoxy)propanamide] | > 30 µM
16 | CN1CCCC1c1csc(Nc2ncccn2)n1 (centres unmarked) [Compound 47] | > 30 µM
17 | CC(C)OC(C)(C)c1csc(NC(=O)[C@@H](C)OCc2ccncc2)n1 [Compound 14, (R)—N-(4-(2-isopropoxypropan-2-yl)thiazol-2-yl)-2-(pyridin-4-ylmethoxy)propanamide] | > 30 µM
18 | O=C(Nc1nc(-c2ccccc2)ns1)c1cccn1Cc1ccncc1 [Compound 37] | 5 to 10 µM
19 | CC(C)OC(C)(C)c1csc(NC(=O)OCCc2ccncc2)n1 [Compound 21, 2-(pyridin-4-yl)ethyl (4-(2-isopropoxypropan-2-yl)thiazol-2-yl)carbamate] | > 30 µM
20 | O=C(CCOc1ccncc1)Nc1nc([C@H]2CCCN2c2ccccc2)cs1 [Compound 2, (R)—N-(4-(1-phenylpyrrolidin-2-yl)thiazol-2-yl)-3-(pyridin-4-yloxy)propanamide] | > 30 µM
21 | c1ccc(N2CCC[C@@H]2c2csc(Nc3ncccc3OCc3ccncc3)n2)cc1 [Compound 8, (R)-4-(1-phenylpyrrolidin-2-yl)-N-(3-(pyridin-4-ylmethoxy)pyridin-2-yl)thiazol-2-amine] | < 5 µM
22 | O=C(c1ccccc1)c1ccc(Nc2nc([C@H]3CCCN3c3ccccc3)cs2)cc1 [Compound 13, (R)-phenyl(4-((4-(1-phenylpyrrolidin-2-yl)thiazol-2-yl)amino)phenyl)methanone] | > 30 µM
23 | O=C(Nc1nc([C@H]2CCCN2c2ccccc2)cs1)OCCc1ccncc1 [Compound 1, 2-(pyridin-4-yl)ethyl (R)-(4-(1-phenylpyrrolidin-2-yl)thiazol-2-yl)carbamate] | > 30 µM
24 | CC(C)OC(C)(C)c1csc(NC(=O)NCc2ccncc2)n1 [Compound 17, 1-(4-(2-isopropoxypropan-2-yl)thiazol-2-yl)-3-(pyridin-4-ylmethyl)urea] | > 30 µM
25 | CC(C)OC(C)(C)c1csc(Nc2ccc(C(=O)c3ccccc3)cc2)n1 [Compound 22, (4-((4-(2-isopropoxypropan-2-yl)thiazol-2-yl)amino)phenyl)(phenyl)methanone] | > 30 µM
26 | O=C(Nc1ccc(C(=O)c2ccccc2)cc1)Nc1nc([C@H]2CCCN2c2ccccc2)cs1 [Compound 23, (R)-1-(4-benzoylphenyl)-3-(4-(1-phenylpyrrolidin-2-yl)thiazol-2-yl)urea] | > 30 µM
27 | CC(C)(C)C1CNC(NC(=O)c2cccn2Cc2ccncc2)=N1 (centres unmarked) [Compound 43] | 5 to 10 µM
28 | Cc1ccc(Nc2nc(C3CCCN3C)cs2)nc1 (centres unmarked) [Compound 46] | > 30 µM
29 | C[C@H](OCc1ccncc1)C(=O)Nc1nc([C@H]2CCCN2c2ccccc2)cs1 [Compound 5, (S)—N-(4-((R)-1-phenylpyrrolidin-2-yl)thiazol-2-yl)-2-(pyridin-4-ylmethoxy)propanamide] | 5 to 10 µM
30 | C[C@@H](OCc1ccncc1)C(=O)Nc1nc([C@H]2CCCN2c2ccccc2)cs1 [Compound 4, (R)—N-(4-((R)-1-phenylpyrrolidin-2-yl)thiazol-2-yl)-2-(pyridin-4-ylmethoxy)propanamide] | 10 to 30 µM
31 | Cc1ccc(Nc2nc(C3CCCN3Cc3cnc[nH]3)cs2)nc1 (centres unmarked) [Compound 45] | > 30 µM
32 | CC(C)OC(C)(C)c1csc(NC(=O)Nc2ccccc2Oc2ccccc2)n1 [Compound 18, 1-(4-(2-isopropoxypropan-2-yl)thiazol-2-yl)-3-(2-phenoxyphenyl)urea] | > 30 µM
33 | CC(C)(C)c1csc(Nc2ncccc2CCc2ccncc2)n1 [Compound 39] | 10 to 30 µM
34 | CC(C)OC(C)(C)c1csc(NC(=O)N(C)Cc2ccncc2)n1 [Compound 19, 3-(4-(2-isopropoxypropan-2-yl)thiazol-2-yl)-1-methyl-1-(pyridin-4-ylmethyl)urea] | > 30 µM
35 | CC(C)OC(C)(C)c1csc(Nc2nccc3ccn(Cc4ccncc4)c23)n1 [Compound 25, 4-(2-isopropoxypropan-2-yl)-N-(1-(pyridin-4-ylmethyl)-1H-pyrrolo[2,3-c]pyridin-7-yl)thiazol-2-amine] | 10 to 30 µM
